Measurements from article PMC3908673 (Bioorganic & medicinal chemistry, 2013).
Like-named read-outs stand apart in the source and are kept apart here.

Legend:
β2-AR [1] = target: T1, β2-AR (Homo sapiens, UniProt P07550); assay type: binding
β2-AR [2] = target: T1, β2-AR; settings: marker [3H]-(R,R′)-2
Gs proteins = settings: ref [2]; cited from earlier work
[3] = system: isolated rat ventricular myocytes; settings: cited from earlier work
[4] = system: isolated rat ventricular myocytes; assay: cardiomyocyte contractility model; assay type: cell-based; settings: initial studies, unpublished data
1321N1 astrocytoma cells [5] = assay: inhibition of proliferation of 1321N1 astrocytoma cells; assay type: cell-based; settings: Homo sapiens, 1321-N1, read-out: IC50, proliferation of 1321N1 astrocytoma cells
[6] = target: β2-AR relative to the β1-AR; settings: β2-AR subtype selectivity; ref [3]; cited from earlier work
1321N1 astrocytoma cells [7] = settings: read-out: IC50, proliferation of 1321N1 astrocytoma cells; ref [5]; cited from earlier work

T1 sequence (P07550 whole entry): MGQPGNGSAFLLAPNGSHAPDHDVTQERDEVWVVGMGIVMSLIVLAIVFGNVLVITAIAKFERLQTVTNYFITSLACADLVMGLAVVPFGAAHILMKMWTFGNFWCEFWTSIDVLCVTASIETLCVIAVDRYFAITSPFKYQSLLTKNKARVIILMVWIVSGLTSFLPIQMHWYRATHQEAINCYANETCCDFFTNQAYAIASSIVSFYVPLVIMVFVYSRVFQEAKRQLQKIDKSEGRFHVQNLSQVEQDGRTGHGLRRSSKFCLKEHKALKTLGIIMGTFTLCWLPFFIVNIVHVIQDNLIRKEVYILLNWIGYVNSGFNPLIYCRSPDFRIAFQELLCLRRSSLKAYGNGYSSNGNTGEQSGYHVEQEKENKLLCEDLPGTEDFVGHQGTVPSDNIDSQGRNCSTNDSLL

SMILES	HS (Hill coefficient), displacement of [3H]-(R,R′)-2 (β2-AR [2])	HS (Hill coefficient), displacement of [3H]-CGP-12177 (β2-AR [1]; marker [3H]-CGP-12177)	other results
COc1ccc(C[C@@H](C)NC[C@H](O)c2cc(O)cc(O)c2)cc1 [(R,R′)-2, (R,R′)-4′-methoxyfenoterol]	0.80 ± 0.9	–	HS (Hill coefficient), displacement of [3H]-CGP-12177 (β2-AR [1]): 0.98 ± 0.05; G protein coupling (Gs proteins): selectively signaled through Gs proteins
COc1ccc(C[C@H](C)NC[C@H](O)c2cc(O)cc(O)c2)cc1 [(R,S′)-2]	1.00 ± 0.05	–	HS (Hill coefficient), displacement of [3H]-CGP-12177 (β2-AR [1]): 1.01 ± 0.14
COc1ccc(CCNC[C@@H](O)c2cc(O)cc(O)c2)cc1 [(S)-67, (S)-5-(1-Hydroxy-2-((4-methoxyphenethyl)amino)ethyl)benzene-1,3-diol]	0.89 ± 0.03	–	–
CC[C@@H](Cc1ccc(O)cc1)NC[C@H](O)c1cc(O)cc(O)c1 [(R,S′)-52]	0.87 ± 0.2	2.07 ± 0.4	–
CC[C@@H](Cc1ccc(OC)cc1)NC[C@H](O)c1cc(O)cc(O)c1 [(R,S′)-64, (R,S′)-(+)-5-(1-Hydroxy-2-((1-(4-methoxyphenyl)butan-2-yl)amino)ethyl)benzene-1,3-diol]	0.86 ± 0.05	–	–
C[C@H](Cc1ccc(O)cc1)NC[C@H](O)c1cc(O)cc(O)c1 [(R,R′)-1, (R,R′)-Fenoterol]	0.76 ± 0.1	–	increase in contractile response ([3]; isolated rat ventricular myocytes, ref [1],[2]): 300%; G protein coupling (Gs proteins): selectively couples to Gs proteins
COc1ccc(C[C@@H](C)NC[C@@H](O)c2cc(O)cc(O)c2)cc1 [(S,R′)-2]	0.86 ± 0.13	–	–
COc1ccc(C[C@@H](NC[C@H](O)c2cc(O)cc(O)c2)C(C)C)cc1 [(R,S′)-65, (R,S′)-(−)-5-(1-hydroxy-2-((1-(4-methoxyphenyl)-3-methylbutan-2-yl)amino)-ethyl)benzene-1,3-diol]	1.45 ± 0.56	–	–
COc1ccc(C[C@H](C)NC[C@H](O)c2cc(O)cc(O)c2)c2ccccc12 [(R,S′)-54]	0.90 ± 0.2	1.06 ± 0.02	–
COc1ccc(C[C@H](NC[C@H](O)c2cc(O)cc(O)c2)C(C)C)cc1 [(R,R′)-65, (R,R′)-5-(1-Hydroxy-2-((1-(4-methoxyphenyl)-3-methylbutan-2-yl)amino)ethyl)-benzene-1,3-diol]	1.41 ± 0.47	–	–
CCC[C@@H](Cc1ccc(OC)cc1)NC[C@H](O)c1cc(O)cc(O)c1 [(R,S′)-66, (R,S′)-5-(1-Hydroxy-2-((1-(4-methoxyphenyl)pentan-2-yl)amino)ethyl)benzene-1,3-diol]	0.89 ± 0.14	–	–
COc1ccc(C[C@@H](C)NC[C@H](O)c2cc(O)cc(O)c2)c2ccccc12 [(R,R′)-54]	0.86 ± 0.1	1.07 ± 0.09	–
COc1ccc(CCNC[C@H](O)c2cc(O)cc(O)c2)cc1 [(R)-67, (R)-(−)-5-(1-Hydroxy-2-((4-methoxyphenethyl)amino)ethyl)benzene-1,3-diol]	1.59 ± 0.50	1.80 ± 0.70	Ki lower than (S)-67 (β2-AR [2]): 10 fold
COc1ccc(C[C@H](C)NC[C@@H](O)c2cc(O)cc(O)c2)cc1 [(S,S′)-2]	1.68 ± 0.54	–	HS (Hill coefficient), displacement of [3H]-CGP-12177 (β2-AR [1]): 2.30 ± 0.32
C[C@@H](Cc1ccc(O)cc1)NC[C@H](O)c1cc(O)cc(O)c1 [(R,S′)-1]	0.97 ± 0.1	0.81 ± 0.1	–
CC[C@H](Cc1ccc(OC)cc1)NC[C@H](O)c1cc(O)cc(O)c1 [(R,R′)-64, (R,R′)-(−)-5-(1-Hydroxy-2-((1-(4-methoxyphenyl)butan-2-yl)amino)ethyl)benzene-1,3-diol]	0.82 ± 0.04	1.00 ± 0.11	Ki lower than (R,R′)-52 (β2-AR [1]; marker [3H]-CGP-12177): 3 fold; Ki(R,S′)/Ki(R,R′) (β2-AR [1]; marker [3H]-CGP-12177, difference between (R,S′)- and (R,R′)-isomers): 50 fold; activity in the cardiomyocyte contractility model [4]: no activity; IC50 (1321N1 astrocytoma cells [5]): 1.5 nM; decrease in binding affinity compared with (R,R′)-2 (β2-AR [2]): 10 fold
CC[C@H](Cc1ccc(O)cc1)NC[C@H](O)c1cc(O)cc(O)c1 [(R,R′)-52]	0.93 ± 0.1	1.01 ± 0.01	Kiβ1-AR/Kiβ2-AR [6]: 334; stimulation of rat cardiomyocyte contractility ([3]; ref [3]): essentially inactive; lower activity in the cardiomyocyte contractility model ([3]; relative to other tested compounds, ref [3]): > 100 fold; IC50 (1321N1 astrocytoma cells [7]): 1.4 nM
CCC[C@H](Cc1ccc(OC)cc1)NC[C@H](O)c1cc(O)cc(O)c1 [(R,R′)-66, (R,R′)-5-(1-Hydroxy-2-((1-(4-methoxyphenyl)pentan-2-yl)amino)ethyl)benzene-1,3-diol]	1.38 ± 0.32	0.90 ± 0.03	–
